# Results published in article PMC11440508, “Dually Labeled Neurotensin NTS1R Ligands for Probing Radiochemical and Fluorescence-Based Binding Assays” (Journal of Medicinal Chemistry, 2024).
# Experiments:
# [1] = Stability in human plasma/PBS 1:2 v/v; type: in vitro ADME; conditions: for % intact compound in plasma: 37 °C; for % intact compound in plasma / remaining at 24 h, 80 μM: 24 h
# Protocol: The proteolytic stabilities of 13 and 18 were investigated in human blood plasma/PBS (136.9 mM NaCl, 2.68 mM KCl, 5.62 mM Na2HPO4, 1.09 mM NaH2PO4, and 1.47 mM KH2PO4, pH 7.4) 1:2 v/v according to a described procedure[38] with the following modifications: 5 mM stock solutions in EtOH/10 mM aqueous HCl 1:1 v/v were used for the addition of the peptides to plasma/PBS 1:2 v/v. As the RP-HPLC purity of 1-methyl-D-Trp, used as internal standard (IS), was <95%, the compound was purified by preparative HPLC to give a purity of >99%. The concentration of the peptides in plasma/PBS 1:2 v/v was 40 μM (recovery determination) or 80 μM (stability tests). Samples were analyzed using the same RP-HPLC system and conditions as described under Analytical HPLC with the following gradient: 0–6 min: acetonitrile/0.04% aqueous TFA 10:90–21:79, 6–12 min: 21:79–40:60, 12–13 min: 40:60–95:5, 13–16 min: 95:5 (isocratic). Data analysis was based on UV detection at 220 nm. Reference samples, representing 100% recovery, were prepared in quadruplicate. Recovery ratios were obtained by dividing the recovery of the peptide by the recovery of IS for each individual sample (n = 4). The obtained recoveries and the recovery ratios are summarized in Table S2, Supporting Information.
# NTS1R [2] = molecular target: T1, NTS1R (Homo sapiens, UniProt P30989); assay: Fluorescence anisotropy (FA) equilibrium saturation binding at hNTS1R-displaying BBVs; parameters: NlucC (C-terminal fragment of nanoluciferase, 11 amino acids) (C); made in house; host or cells: Sf9 insect cells, baculovirus (pIMACE-CMVintP10-hNTS1R-Nluc, DH10MultiBac); budded baculovirus particles; conditions: NTS1R-BBV, 27 °C
# T1 sequence (P30989 whole entry, the tested form may be a part): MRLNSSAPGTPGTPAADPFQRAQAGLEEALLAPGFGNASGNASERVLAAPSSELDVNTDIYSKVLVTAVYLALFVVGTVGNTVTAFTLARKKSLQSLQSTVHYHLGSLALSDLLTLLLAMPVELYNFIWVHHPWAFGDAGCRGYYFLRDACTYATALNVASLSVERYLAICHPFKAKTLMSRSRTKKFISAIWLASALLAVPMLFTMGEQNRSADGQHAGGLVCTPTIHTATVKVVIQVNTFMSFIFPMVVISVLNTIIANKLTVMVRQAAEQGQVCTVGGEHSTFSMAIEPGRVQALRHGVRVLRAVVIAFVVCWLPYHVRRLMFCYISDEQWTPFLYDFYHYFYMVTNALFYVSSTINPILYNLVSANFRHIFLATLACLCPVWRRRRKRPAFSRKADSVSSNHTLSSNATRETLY
# Protocol: FA-based NTS1R binding studies with 13 and 18 were performed at hNTS1R displaying budded baculovirus particles (termed BBVs below), which were obtained from Sf9 insect cells following the procedure reported for the preparation of neuropeptide Y Y1R displaying BBVs.[61] The obtained viruses were collected by centrifugation at 1600g for 10 min, and the virus titer was determined with an image-based cell-size estimation assay as described elsewhere.[62] The viruses were amplified using a multiplicity of infection (MOI) between 0.01 and 0.1 until a high-titer baculovirus stock (virus concentration of at least 1.0 × 10^8 infectious viral particles/mL) was acquired. To produce BBV preparations with a high receptor density, Sf9 cells with a density of 1.9 × 10^6 cells/mL were infected with an MOI of 3 and the BBVs were collected by centrifugation 63 h after the infection, when the cell viability was <30%. […]
# (§1) FA measurements were performed with a Synergy NEO multimode plate reader (BioTek, Winooski, VT) and black, half area, flat bottom polystyrene nonbinding surface (NBS) 96-well plates (product no. 3993; Corning, Corning, NY). Polarizing excitation (530 ± 15 nm) and dual emission (590 ± 17.5 nm) filters with a dichroic mirror were used, allowing the simultaneous detection of parallelly and perpendicularly polarized fluorescence emission after polarizing beam splitter. […]
# NTS1R [3] = molecular target: T1, NTS1R; assay: Fluorescence anisotropy (FA) association and dissociation kinetics at hNTS1R-displaying BBVs; type: binding; parameters: NlucC (C-terminal fragment of nanoluciferase, 11 amino acids) (C); made in house; host or cells: Sf9 insect cells, baculovirus (pIMACE-CMVintP10-hNTS1R-Nluc, DH10MultiBac); budded baculovirus particles; conditions: NTS1R-BBV, 27 °C; for kon: from model fit, read-out: kon [min^–1 nM^–1] (converted); for koff: read-out: koff [min^–1] (converted)
# Protocol: FA-based NTS1R binding studies with 13 and 18 were performed at hNTS1R displaying budded baculovirus particles (termed BBVs below), which were obtained from Sf9 insect cells following the procedure reported for the preparation of neuropeptide Y Y1R displaying BBVs.[61] The obtained viruses were collected by centrifugation at 1600g for 10 min, and the virus titer was determined with an image-based cell-size estimation assay as described elsewhere.[62] The viruses were amplified using a multiplicity of infection (MOI) between 0.01 and 0.1 until a high-titer baculovirus stock (virus concentration of at least 1.0 × 10^8 infectious viral particles/mL) was acquired. To produce BBV preparations with a high receptor density, Sf9 cells with a density of 1.9 × 10^6 cells/mL were infected with an MOI of 3 and the BBVs were collected by centrifugation 63 h after the infection, when the cell viability was <30%. The BBVs were concentrated 40-fold by centrifugation at 48,000g at 4 °C for 40 min, washed with ice-cold DPBS (without supplements), resuspended, and homogenized using a 0.3 mm diameter needle (Sterican, B. Braun, Melsungen, Germany). Aliquots of the BBV preparations were stored at −90 °C until use.
# as §1, with “splitter. All measurements were performed at 27 °C. For all experiments, DPBS2 was used as binding buffer.” for “splitter.”
# 25 μL of a 4-fold concentrated (compared to the final concentration) solution of 13 or 18 (final concentrations were 0.3 and 1 nM for both ligands) and 25 μL of DPBS2 were premixed in the 96-well plate followed by the addition of 50 μL of BBV suspension (used in six different concentrations; each was combined with the two ligand concentrations) to start the association. […] This enabled shorter time intervals between the read cycles (the measuring time for one cycle, comprising 4 wells, was 6 s; 100 read cycles were carried out). […] Immediately after the addition of SR142948, FA signals were measured for 10 min (within this time period, the dissociation was complete and a plateau was reached, respectively). Equilibrium binding was analyzed using the FA signals at 10 min. Fluorescence intensities were processed as previously reported[61] using the in-house developed software Aparecium 2.0.20 (http://www.gpcr.ut.ee/software.html).[63] […]
# [4] = human blood plasma/PBS 1:2 v/v, pH 7.4, 37 °C, read-out: % intact compound in plasma
Structure (SMILES),% intact compound in plasma [1] [%],"remaining at 0.5 h, 80 μM ([1]; human blood plasma/PBS 1:2 v/v, pH 7.4, 37 °C, 30 min, read-out: % intact compound in plasma) [%]","remaining at 2 h, 80 μM [1, 4] [%]","remaining at 6 h, 80 μM [1, 4] [%]","remaining at 24 h, 80 μM [1, 4] [%]","remaining at 48 h, 80 μM [1, 4] [%]",Kd (NTS1R [2]) [nM],kon (NTS1R [3]) [M⁻¹ s⁻¹],koff (NTS1R [3]) [s⁻¹]
"CCC(=O)NCCCCNC(=O)N=C(N)NCCC[C@H](NC(=O)[C@@H]1CCCN1C(=O)[C@@H](NC(=O)CCc1cn(CCCNC(=O)c2ccc(-c3c4ccc(=[N+](C)C)cc-4oc4cc(N(C)C)ccc34)c(C(=O)[O-])c2)nn1)C1CCNCC1)C(=O)N[C@@H](CCCNC(=N)N)C(=O)N1CCC[C@H]1C(=O)N[C@@H](Cc1ccc(O)cc1)C(=O)N[C@H](C(=O)N[C@@H](CC(C)C)C(=O)O)[C@@H](C)CC [Compound 13, N^α-(3-(1-N-((1-Carboxylato-2-(6-(dimethylamino)-3-(dimethyliminio)-3H-xanthen-9-yl)phen-5-yl)1-oxomethyl)aminoprop-3-yl-1H-1,2,3-triazol-4-yl)propanoyl)-2-(piperidin-4-yl)-Gly-Pro-N^ω-[(4-(N-propanoyl)aminobutyl)aminocarbonyl]Arg-Arg-Pro-Tyr-Ile-Leu Tris(hydrotrifluoroacetate)]",> 50,> 99,> 99,> 99,86 ± 4,58 ± 5,1.3 ± 0.1,1.67e+07,0.0102
"CCC(=O)NCCCCNC(=O)NC(=N)NCCC[C@H](NC(=O)[C@@H]1CCCN1C(=O)[C@@H](NC(=O)CCc1cn(CCCNC(=O)CCC#Cc2ccc3c(c2)C(C)(C)C2=C4C=C5C6=[N+](CCC5OC4CCN23)c2ccc(S(=O)(=O)[O-])cc2C6(C)C)nn1)C1CCNCC1)C(=O)N[C@@H](CCCNC(=N)N)C(=O)N1CCC[C@H]1C(=O)N[C@H](C(=O)N[C@H](C(=O)N[C@@H](CC(C)C)C(=O)O)[C@@H](C)CC)C(C)(C)c1ccc(O)cc1 (stereo partly drawn) [Compound 18, N^α-(3-(N-(1-(8-Sulfonato-5,5,27,27-tetramethyl-16-oxa-20-aza-12-azoniaheptacyclo[15.11.0.03,15.04,12.06,11.020,28.021,26]octacosa-1(28),2,4(12),6(11),7,9,21(26),22,24-nonaen-24-yl)-5-oxopentyn-5-yl)-1-aminoprop-3-yl-1H-1,2,3-triazol-4-yl)propanoyl)-2-(piperidin-4-yl)-Gly-Pro-N^ω-[(4-(N-propanoyl)aminobutyl)aminocarbonyl]Arg-Arg-Pro-β,β-dimethyl-L-Tyr-Ile-Leu Tris(hydrotrifluoroacetate)]",> 50,,95 ± 6,90 ± 6,82 ± 4,52 ± 4,1.5 ± 0.1,2.33e+07,0.00933
